Assay results taken from ChEMBL document CHEMBL1146931, “Inhibitors of VEGF receptors-1 and -2 based on the 2-((pyridin-4-yl)ethyl)pyridine template” (Bioorg Med Chem Lett, 2006).
pIC50, pKi: −log10 of the molar value. Values belong to the molecule of their own block, whether it stands above or below them.

How the values were obtained:
Caco-2 = assay: Intrinsic permeability in Caco-2 cells; conditions: human
[1] = target: T1, Vascular endothelial growth factor receptor 2 (Homo sapiens, UniProt P35968)
T1 sequence (P35968 whole entry): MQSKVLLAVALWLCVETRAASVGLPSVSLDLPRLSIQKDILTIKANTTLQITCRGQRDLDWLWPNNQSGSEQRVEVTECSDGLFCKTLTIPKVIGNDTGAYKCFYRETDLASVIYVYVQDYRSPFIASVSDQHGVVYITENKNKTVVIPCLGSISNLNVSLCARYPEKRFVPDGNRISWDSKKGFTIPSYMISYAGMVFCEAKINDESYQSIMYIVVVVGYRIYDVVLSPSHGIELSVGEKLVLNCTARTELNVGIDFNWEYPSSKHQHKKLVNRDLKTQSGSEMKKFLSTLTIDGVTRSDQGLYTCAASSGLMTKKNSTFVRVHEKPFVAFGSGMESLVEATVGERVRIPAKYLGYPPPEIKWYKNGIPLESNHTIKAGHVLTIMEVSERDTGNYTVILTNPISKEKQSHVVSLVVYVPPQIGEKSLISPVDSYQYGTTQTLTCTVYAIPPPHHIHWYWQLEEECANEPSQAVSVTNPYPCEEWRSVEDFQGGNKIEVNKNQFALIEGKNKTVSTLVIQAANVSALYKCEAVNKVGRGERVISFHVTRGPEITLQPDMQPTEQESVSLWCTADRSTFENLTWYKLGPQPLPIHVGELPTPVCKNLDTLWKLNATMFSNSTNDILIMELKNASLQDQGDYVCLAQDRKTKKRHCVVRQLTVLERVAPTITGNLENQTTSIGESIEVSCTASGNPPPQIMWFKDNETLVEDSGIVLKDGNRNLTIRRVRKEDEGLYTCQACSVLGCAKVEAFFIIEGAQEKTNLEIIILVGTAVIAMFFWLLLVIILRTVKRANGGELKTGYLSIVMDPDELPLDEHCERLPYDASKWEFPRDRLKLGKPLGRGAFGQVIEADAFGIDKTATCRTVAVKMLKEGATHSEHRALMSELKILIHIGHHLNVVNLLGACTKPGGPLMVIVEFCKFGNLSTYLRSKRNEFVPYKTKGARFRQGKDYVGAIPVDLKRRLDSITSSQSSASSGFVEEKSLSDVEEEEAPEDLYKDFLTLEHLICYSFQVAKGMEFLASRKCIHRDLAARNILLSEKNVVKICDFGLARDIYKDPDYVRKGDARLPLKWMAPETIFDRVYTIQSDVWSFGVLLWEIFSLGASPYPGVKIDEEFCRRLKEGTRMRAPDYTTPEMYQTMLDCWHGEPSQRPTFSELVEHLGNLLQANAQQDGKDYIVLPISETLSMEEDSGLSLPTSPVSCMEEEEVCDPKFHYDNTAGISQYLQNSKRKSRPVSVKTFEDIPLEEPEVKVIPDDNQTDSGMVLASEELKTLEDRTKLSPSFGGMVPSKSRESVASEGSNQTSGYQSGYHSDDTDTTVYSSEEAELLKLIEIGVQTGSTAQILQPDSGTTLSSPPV
Description: Inhibition of VEGFR2 phosphorylation in presence of 2 uM ATP by HTRF assay

[2] = target: Vascular endothelial growth factor receptor 1 (Homo sapiens, UniProt P17948)
Vascular endothelial growth factor receptor 1, sequence (P17948 whole entry): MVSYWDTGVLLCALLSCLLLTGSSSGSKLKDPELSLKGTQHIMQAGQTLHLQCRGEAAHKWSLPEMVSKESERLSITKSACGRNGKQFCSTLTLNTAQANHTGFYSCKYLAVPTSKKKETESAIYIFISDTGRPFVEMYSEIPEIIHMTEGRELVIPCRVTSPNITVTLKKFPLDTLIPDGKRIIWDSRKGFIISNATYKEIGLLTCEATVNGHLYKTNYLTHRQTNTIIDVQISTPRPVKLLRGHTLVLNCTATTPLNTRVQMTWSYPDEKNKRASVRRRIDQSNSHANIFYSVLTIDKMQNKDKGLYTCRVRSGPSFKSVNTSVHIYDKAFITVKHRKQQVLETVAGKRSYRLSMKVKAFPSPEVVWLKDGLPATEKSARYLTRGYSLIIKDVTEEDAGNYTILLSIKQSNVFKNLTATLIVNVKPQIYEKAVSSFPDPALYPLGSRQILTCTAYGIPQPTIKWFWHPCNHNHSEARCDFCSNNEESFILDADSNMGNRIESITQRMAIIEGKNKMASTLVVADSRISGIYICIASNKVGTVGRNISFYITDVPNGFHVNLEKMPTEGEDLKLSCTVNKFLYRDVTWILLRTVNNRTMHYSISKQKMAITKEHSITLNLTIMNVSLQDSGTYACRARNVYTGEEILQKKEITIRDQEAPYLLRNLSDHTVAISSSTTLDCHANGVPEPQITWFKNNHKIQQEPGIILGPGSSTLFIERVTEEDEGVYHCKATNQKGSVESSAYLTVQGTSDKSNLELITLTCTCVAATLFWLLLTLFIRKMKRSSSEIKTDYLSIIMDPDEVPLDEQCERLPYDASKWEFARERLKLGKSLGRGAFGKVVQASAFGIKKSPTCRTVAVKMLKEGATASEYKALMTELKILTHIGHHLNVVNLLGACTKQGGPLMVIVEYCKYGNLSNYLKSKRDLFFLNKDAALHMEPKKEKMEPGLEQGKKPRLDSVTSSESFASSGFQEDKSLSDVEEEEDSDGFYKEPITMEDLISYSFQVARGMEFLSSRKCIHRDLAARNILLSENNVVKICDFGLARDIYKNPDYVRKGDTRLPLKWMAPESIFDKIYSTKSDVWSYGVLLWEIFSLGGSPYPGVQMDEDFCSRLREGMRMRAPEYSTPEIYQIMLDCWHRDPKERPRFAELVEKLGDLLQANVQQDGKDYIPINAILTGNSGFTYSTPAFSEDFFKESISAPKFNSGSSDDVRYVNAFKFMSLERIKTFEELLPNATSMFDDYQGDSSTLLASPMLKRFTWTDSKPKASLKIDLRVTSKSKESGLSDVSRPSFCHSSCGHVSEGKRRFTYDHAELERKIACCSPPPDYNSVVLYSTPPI
Description: Inhibition of VEGFR1 phosphorylation in presence of 2 uM ATP by HTRF assay

[3] = target: T1, Vascular endothelial growth factor receptor 2; assay: Inhibition of VEGFR2 phosphorylation in HEK293 cells by cell-based ELISA; conditions: for pIC50: read-out: IC50
[4] = target: T1, Vascular endothelial growth factor receptor 2; assay: Binding affinity to VEGFR2 at 0.043 uM
[5] = target: T1, Vascular endothelial growth factor receptor 2; assay: Binding affinity to VEGFR2 at 0.031 uM
[6] = target: T1, Vascular endothelial growth factor receptor 2; assay: Binding affinity to VEGFR2 at 0.058 uM

SMILES: O=C(Nc1cnc2ccccc2c1)c1ccccc1NCc1ccncc1
Pm (Caco-2): 17.3 10^-5 cm/min

SMILES: Cc1cccc(Nc2nnc(-c3cccnc3CCc3ccncc3)o2)c1
pIC50 [1]: 6.11
pIC50 [2]: 5.97
pIC50 [3]: 5.67

SMILES: CC(C)(C)c1ccc(Nc2nnc(-c3cc4ccccc4nc3CCc3ccncc3)o2)cc1
pIC50 [1]: < 5.00
pIC50 [2]: < 5.00

SMILES: FC(F)(F)c1ccc(Nc2nnc(-c3cnccc3CCc3ccncc3)o2)cc1
pIC50 [1]: 6.36
pIC50 [2]: 6.17
pIC50 [3]: 6.13

SMILES: FC(F)(F)c1cccc(Nc2nnc(-c3cnccc3CCc3ccncc3)o2)c1
pIC50 [1]: 6.14
pIC50 [2]: 5.91
pIC50 [3]: 5.60

SMILES: FC(F)(F)Oc1cccc(Nc2nnc(-c3ccncc3CCc3ccncc3)o2)c1
pIC50 [1]: 6.33
pIC50 [2]: 6.15
pIC50 [3]: 6.07

SMILES: FC(F)(F)c1cccc(Nc2nnc(-c3cccnc3CCc3cccc4ncccc34)o2)c1
pIC50 [1]: 5.25
pIC50 [2]: < 5.00
pIC50 [3]: < 5.00

SMILES: Cc1ccccc1Nc1nnc(-c2cccnc2CCc2ccncc2)o1
pIC50 [1]: < 5.00
pIC50 [2]: < 5.00

SMILES: FC(F)(F)c1cccc(Nc2nnc(-c3cc4ccccc4nc3CCc3ccncc3)o2)c1
pIC50 [1]: < 5.00
pIC50 [2]: < 5.00
pIC50 [3]: < 5.00

SMILES: FC(F)(F)c1cccc(Nc2nnc(-c3cccnc3CCc3ccc4ccccc4n3)o2)c1
pIC50 [1]: < 5.00
pIC50 [2]: < 5.00
pIC50 [3]: < 5.00

SMILES: c1cnc(CCc2ccncc2)c(-c2nnc(Nc3cnc4ccccc4c3)o2)c1
pIC50 [1]: 6.42
pIC50 [2]: 6.36
IC50 ([3]; hek293): Not Active

SMILES: c1ccc2ncc(Nc3nnc(-c4cc5ccccc5nc4CCc4ccncc4)o3)cc2c1
pIC50 [1]: < 5.00
pIC50 [2]: < 5.00

SMILES: Fc1ccc(CCc2ncccc2-c2nnc(Nc3cccc(C(F)(F)F)c3)o2)cc1F
pIC50 [1]: < 5.00
pIC50 [2]: < 5.00
pIC50 [3]: < 5.00

SMILES: FC(F)(F)Oc1ccc(Nc2nnc(-c3cnccc3CCc3ccncc3)o2)cc1
pIC50 [1]: 6.44
pIC50 [2]: 6.33
pIC50 [3]: 6.29

SMILES: FC(F)(F)c1cccc(Nc2nnc(-c3cccnc3CCc3ccccn3)o2)c1
pIC50 [1]: < 5.00
pIC50 [2]: < 5.00
pIC50 [3]: < 5.00

SMILES: c1ccc(-c2ccc(Nc3nnc(-c4cccnc4CCc4ccncc4)o3)cc2)cc1
pIC50 [1]: 5.58
pIC50 [2]: < 5.00

SMILES: FC(F)(F)c1cccc(Nc2nnc(-c3cccnc3CCc3cccnc3)o2)c1
pIC50 [1]: < 5.00
pIC50 [2]: < 5.00
pIC50 [3]: < 5.00

SMILES: FC(F)(F)Oc1cccc(Nc2nnc(-c3cnccc3CCc3ccncc3)o2)c1
pIC50 [1]: 6.26
pIC50 [2]: 6.13
pIC50 [3]: 6.12

SMILES: FC(F)(F)c1cccc(Nc2nnc(-c3ccncc3CCc3ccncc3)o2)c1
pIC50 [1]: 6.25
pIC50 [2]: 6.12
pIC50 [3]: 5.95

SMILES: FC(F)(Cl)Oc1ccc(Nc2nnc(-c3cnccc3CCc3ccncc3)o2)cc1
pIC50 [1]: 6.36
pIC50 [2]: 6.28
pIC50 [3]: 6.23

SMILES: FC(F)(F)c1cccc(Nc2nnc(-c3cccnc3CCc3ccc4[nH]ncc4c3)o2)c1
pIC50 [1]: 5.41
pIC50 [2]: < 5.00
pIC50 [3]: < 5.00

Further molecules by rising pIC50 [1], results first:

pIC50 [1]: 6.46
pIC50 [2]: 6.03
pIC50 [3]: 6.18
SMILES: FC(F)(F)Oc1ccc(Nc2nnc(-c3ccncc3CCc3ccncc3)o2)cc1

pIC50 [1]: 6.51
pIC50 [2]: 6.32
pIC50 [3]: 6.28
SMILES: CC(C)(C)c1ccc(Nc2nnc(-c3cnccc3CCc3ccncc3)o2)cc1

pIC50 [1]: 6.54
pIC50 [2]: 6.08
pIC50 [3]: 6.14
SMILES: FC(F)(F)c1ccc(Nc2nnc(-c3ccncc3CCc3ccncc3)o2)cc1

pIC50 [1]: 6.60
pIC50 [2]: 6.57
pIC50 [3]: 6.41
SMILES: CC(C)c1ccc(Nc2nnc(-c3ccncc3CCc3ccncc3)o2)cc1

pIC50 [1]: 6.66
pIC50 [2]: 6.09
pIC50 [3]: 6.28
SMILES: FC(F)(Cl)Oc1ccc(Nc2nnc(-c3ccncc3CCc3ccncc3)o2)cc1

pIC50 [1]: 6.72
pIC50 [2]: 6.66
pIC50 [3]: 6.49
SMILES: CC(C)(C)c1ccc(Nc2nnc(-c3ccncc3CCc3ccncc3)o2)cc1

pIC50 [1]: 6.77
pIC50 [2]: 6.30
pIC50 [3]: 6.54
SMILES: COc1cccc(Nc2nnc(-c3cccnc3CCc3ccncc3)o2)c1

pIC50 [1]: 7.06
pIC50 [2]: 6.92
pIC50 [3]: 7.04
SMILES: Cc1ccc(Nc2nnc(-c3cccnc3CCc3ccncc3)o2)cc1C(F)(F)F

pIC50 [1]: 7.07
pIC50 [2]: 6.85
Pm (Caco-2): 23.6 10^-5 cm/min
pIC50 [3]: 6.54
SMILES: c1cnc(CCc2ccncc2)c(-c2nnc(NCc3ccc4c(c3)OCO4)o2)c1

pIC50 [1]: 7.10
pIC50 [2]: 6.57
pIC50 [3]: 7.03
SMILES: Clc1ccc(Nc2nnc(-c3cccnc3CCc3ccncc3)o2)cc1Cl

pIC50 [1]: 7.16
pIC50 [2]: 6.59
Pm (Caco-2): 42.6 10^-5 cm/min
pIC50 [3]: 6.96
SMILES: FC(F)(F)Oc1cccc(Nc2nnc(-c3cccnc3CCc3ccncc3)o2)c1

pIC50 [1]: 7.17
pIC50 [2]: 6.74
pIC50 [3]: 6.96
SMILES: COc1ccc(Nc2nnc(-c3cccnc3CCc3ccncc3)o2)cc1OC

pIC50 [1]: 7.19
pIC50 [2]: 6.66
pIC50 [3]: 6.96
SMILES: FC(F)(F)c1cccc(Nc2nnc(-c3cccnc3CCc3ccncc3)o2)c1

pIC50 [1]: 7.24
pIC50 [2]: 6.49
pIC50 [3]: 7.12
pKi [6]: 6.92
SMILES: FC(F)(F)c1ccc(Nc2nnc(-c3cccnc3CCc3ccncc3)o2)cc1

pIC50 [1]: 7.29
pIC50 [2]: 6.21
pIC50 [3]: 7.12
SMILES: CC(C)c1ccc(Nc2nnc(-c3cccnc3CCc3ccncc3)o2)cc1

pIC50 [1]: 7.36
pIC50 [2]: 6.25
pIC50 [3]: 7.29
SMILES: FC(F)(F)Oc1ccc(Nc2nnc(-c3cccnc3CCc3ccncc3)o2)cc1

pIC50 [1]: 7.37
pIC50 [2]: 6.11
pIC50 [3]: 7.20
pKi [4]: 6.89
SMILES: CC(C)(C)c1ccc(Nc2nnc(-c3cccnc3CCc3ccncc3)o2)cc1

pIC50 [1]: 7.51
pIC50 [2]: 6.14
pIC50 [3]: 7.36
pKi [5]: 7.00
SMILES: FC(F)(Cl)Oc1ccc(Nc2nnc(-c3cccnc3CCc3ccncc3)o2)cc1
